Experimental findings from US20250345446A1 (Draupnir Bio ApS, priority 2022, published 2025) are described below.

Assay [1] deals with HEK293/sortilin cells. Briefly: Lysosomal sorting and degradation of NA650 (microscopy, blotted lysates, leupeptin). The assay is classed as cell-based. The conditions noted are these: NA650 100 nM. As for the experimental part: Cellular uptake of target NA650 was analyzed with fluorescence microscopy. For this assay, coverslips in 4 well plates were coated with poly-L lysine prior to seeding of HEK293/sortilin cells (25K cells/coverslip) in culture media (as described in Example 3)) and incubated overnight in cell incubator (37° C., humidified, 5% CO2). The culture media was replaced with assay media (as described in Example 3) containing NA650 (Invitrogen) (500 nM) (Thermo Fischer), a compound according to SEQ ID NO.: 147 (2 μM) and AF38469 (100 μM, MedChemExpress). The cells were incubated in a cell incubator for 4 hours before washing in dPBS (Bionordika) followed by fixation with dPBS+4% PFA (Sigma Aldrich) for 15 minutes. […] The fluorescent signal was analyzed using a laser scanning confocal microscope (LSM-800). […]
Culture medium was replaced with assay medium (DMEM (Lonza), 10% fetal bovine serum (Sigma Aldrich), 1% penicillin-streptomycin (Sigma Aldrich), 1% GlutaMAX (Gibco)) with or without NA650 (Invitrogen) (100 nM) (Thermo Fischer), peptidic bifunctional compound (300 nM) and leupeptin (80 μM) (Sigma Aldrich). […] Proteins were blotted onto a nitrocellulose membrane (Thermo Fisher), and the DyLight650 signal was detected using an iBright 1500 (Thermo Fisher). […]

The subject of assay [2] is untransfected HEK239 cells. As to the kind of experiment: Cellular uptake of target in untransfected HEK293 cells (Example 22). The assay is classed as cell-based. The conditions noted are these: HEK293 cells without sortilin, 3 h, 2 nM to 2 μM, corresponding targets.
Source text: Cellular uptake of target was investigated in untransfected HEK239 cells and HEK293 cells expressing sortilin receptor in a methodology analogous to example 3.
Assay [3] deals with T1, soluble ectodomain of sortilin-6his (Homo sapiens, UniProt Q99523, V650M).
T1 construct: the soluble ectodomain of sortilin-6his is measured by microscale thermophoresis (MST)
T1 sequence (Q99523 with tags, fused parts or gaps V650M): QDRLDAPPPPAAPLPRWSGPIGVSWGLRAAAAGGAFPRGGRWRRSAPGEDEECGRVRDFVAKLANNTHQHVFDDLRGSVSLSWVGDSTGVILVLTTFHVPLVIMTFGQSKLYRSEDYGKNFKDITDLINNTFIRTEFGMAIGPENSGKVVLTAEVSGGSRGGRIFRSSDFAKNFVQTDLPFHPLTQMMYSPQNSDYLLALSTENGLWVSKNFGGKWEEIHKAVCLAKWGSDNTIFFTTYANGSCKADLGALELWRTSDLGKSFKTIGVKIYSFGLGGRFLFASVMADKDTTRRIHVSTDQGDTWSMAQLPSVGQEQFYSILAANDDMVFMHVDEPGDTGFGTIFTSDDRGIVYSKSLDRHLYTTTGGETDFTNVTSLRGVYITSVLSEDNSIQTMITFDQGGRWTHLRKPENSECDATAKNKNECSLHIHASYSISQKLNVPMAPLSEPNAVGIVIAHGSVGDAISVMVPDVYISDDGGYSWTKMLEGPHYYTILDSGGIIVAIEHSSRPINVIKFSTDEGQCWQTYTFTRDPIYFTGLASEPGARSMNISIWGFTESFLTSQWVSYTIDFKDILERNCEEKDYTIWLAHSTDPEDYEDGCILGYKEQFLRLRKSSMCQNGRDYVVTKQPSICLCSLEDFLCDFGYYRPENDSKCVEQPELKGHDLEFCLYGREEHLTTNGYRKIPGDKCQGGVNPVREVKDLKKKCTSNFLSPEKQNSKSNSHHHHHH
Briefly: MST binding to soluble ectodomain of sortilin-6his.

Assay [4] deals with HEK293 cells expressing full length sortilin receptor. Briefly: Cellular uptake of AlexaFluor488-anti-DNP antibody. The assay is classed as cell-based. The note with it: Table 7; AlexaFluor488-anti-DNP antibody (100 nM), 3 h, DNP warhead compounds. From the text:
In this example, the small molecule degraders consist of a sortilin binder linked to warhead DNP to target anti-DNP antibodies (BF001 to BF016)
Cellular uptake of AlexaFluor488-anti-DNP antibody (Thermo Fisher) was investigated in HEK293 cells expressing full length sortilin receptor in a methodology analogous to example 3.

The test system of assay [5] is HEK293/sortilin cells. Briefly: Remaining TNFalpha in conditioned media (ELISA). The assay is classed as cell-based. The note with it: after 72 h, 20 nM TNFalpha; added TNFalpha (100%) subtracted remaining TNFalpha (%). As for the experimental part:
In different experiments, HEK293/sortilin cells were incubated with compound gradient series and 20 nM TNFalpha for up to 72 h. Following incubation, remaining TNFalpha in conditioned media was evaluated using human TNF-alpha Quantikine ELISA Kit (R&D systems, DTA00D).

Assay [6] relates to HEK293/sortilin cells. As to the kind of experiment: Depletion of NA650 from cell culture supernatant. The assay is classed as cell-based. The note with it: for reduction in NA650 signal in cell culture supernatant: single addition, NA650 100 nM. How it is done: HEK293/sortilin cells were cultured in culture media containing DMEM (Lonza) further supplemented with 10% fetal bovine serum (Sigma), 1% GlutaMax Supplement (Gibco), penicillin-streptomycin (Thermo Fischer) and selection antibiotics 100 μg/mL Zeocin (Invitrogen). 35k cells/well were seeded in poly-L-lysine coated 96-well plates (Perkin Elmer) and allowed to incubate for 16-24 h in cell incubator (37° C., humidified, 5% CO2). Culture media were discarded, and the cells were washed with assay medium containing FluoroBright DMEM (Gibco) supplemented with 10% fetal bovine serum (Sigma) and 1% GlutaMax Supplement (Gibco). The media were discarded and replaced with assay media or assay medium containing 100 nM NA650 (Invitrogen). For wells evaluating the bifunctional compounds, the assay medium also contained concentrations ranging from 20 nM to 5 μM. After an incubation period of up to 72 h in the cell incubator the media were harvested and the presence of NA650 were evaluated by fluorescence intensity (FI) measurements of DyLight650 using a fluorescence plate reader (BMG Labtech Clariostar).
HEK293/sortilin cells (35k cells/96-well) were seeded in culture media (as described in Example 3) and incubated for 24 h in cell incubator. Culture media were discarded, and the cells were washed with assay medium containing FluoroBright DMEM (Gibco) and supplements as described in Example 3, before incubation in assay medium containing 100 nM NA650 and small molecule bifunctional compounds (20 nM to 5 μM). After an incubation period of up to 72 h, the media were harvested and the presence of NA650 were evaluated by FI measurements of DyLight650 using a fluorescence plate reader (BMG Labtech Clariostar).

Assay [7] deals with HEK293 cells expressing full length sortilin receptor. Briefly: Cellular uptake of NA650 in HEK293/sortilin cells. The assay is classed as cell-based. The conditions noted are these: 3 h incubation, 9.8 nM to 10 μM, NA650 100 nM. As for the experimental part:
Cellular uptake of NA650 was investigated in HEK293 cells expressing full length sortilin receptor (Petersen et. al.). Cells were seeded in poly-L-lysine coated 96-well plates (Perkin Elmer) (40K/well) in 50 μL culture medium (DMEM (Lonza)+10% FBS (SigmaAldrich)+1% penicillin-streptomycin (SigmaAldrich)+1% GlutaMAX (Gibco)+100 μg/mL Zeocin (Invitrogen)) and incubated overnight in cell incubator (37° C., humidified, 5% CO2).
Culture medium was replaced with assay medium (DMEM (Lonza)+10% fetal bovine serum (SigmaAldrich)+1% penicillin-streptomycin (SigmaAldrich)+1% GlutaMAX (Gibco)) containing NA650 (Invitrogen) (100 nM) (Thermo Fischer) and peptidic bifunctional compounds (9.8 nM to 10 μM). Cells were incubated for 3 h in cell incubator before they were washed in dPBS (Bionordika). The DyLight650 signal in the cell layer was detected using a fluorescence plate reader (BMG Labtech Clariostar).
Cellular uptake of NA650 was investigated in HEK293 cells expressing full length sortilin receptor using a methodology analogous to example 3.

Assay [8] deals with streptavidin, bifunctional compound and sortilin-6his (UniProt P22629+Q99523, V650M). Briefly: TR-FRET ternary complex formation streptavidin / bifunctional peptide / sortilin-6his. The conditions noted are these: Table 2; […] incubation, HTRF ratio 665/620 nm.
Procedure: In these experiments, the compounds of interest were titrated over 24-point in a 384-well TTP LVDS plate (SPT Labtech) to a final buffer composition of 50 mM Bis-Tris Propane pH 8, 50 mM NaCl, 0.05% Tween20, with or without 10% DMSO using a Mosquito LV pipetting robot (SPT Labtech).
The reaction was allowed to incubate for 2.5 hours at room temperature, at which point the HTRF signal ratio at 665/620 nm was determined using a plate reader (ClarioStar, BMG Labtech). All reactions were run in triplicates and data was represented as HTRF ratio as a function of bifunctional compound concentration.
The target in assay [9] is Sortilin-6His (Homo sapiens (Human)) (UniProt Q99523). Briefly: MST on labelled sortilin-6his ectodomain; KD score: +++ <25 nM, ++ 25-250 nM, + 250-2500 nM, 0 >2500 nM.
Sortilin-6His (Homo sapiens (Human)), sequence (Q99523 78-755 V650M limits assumed): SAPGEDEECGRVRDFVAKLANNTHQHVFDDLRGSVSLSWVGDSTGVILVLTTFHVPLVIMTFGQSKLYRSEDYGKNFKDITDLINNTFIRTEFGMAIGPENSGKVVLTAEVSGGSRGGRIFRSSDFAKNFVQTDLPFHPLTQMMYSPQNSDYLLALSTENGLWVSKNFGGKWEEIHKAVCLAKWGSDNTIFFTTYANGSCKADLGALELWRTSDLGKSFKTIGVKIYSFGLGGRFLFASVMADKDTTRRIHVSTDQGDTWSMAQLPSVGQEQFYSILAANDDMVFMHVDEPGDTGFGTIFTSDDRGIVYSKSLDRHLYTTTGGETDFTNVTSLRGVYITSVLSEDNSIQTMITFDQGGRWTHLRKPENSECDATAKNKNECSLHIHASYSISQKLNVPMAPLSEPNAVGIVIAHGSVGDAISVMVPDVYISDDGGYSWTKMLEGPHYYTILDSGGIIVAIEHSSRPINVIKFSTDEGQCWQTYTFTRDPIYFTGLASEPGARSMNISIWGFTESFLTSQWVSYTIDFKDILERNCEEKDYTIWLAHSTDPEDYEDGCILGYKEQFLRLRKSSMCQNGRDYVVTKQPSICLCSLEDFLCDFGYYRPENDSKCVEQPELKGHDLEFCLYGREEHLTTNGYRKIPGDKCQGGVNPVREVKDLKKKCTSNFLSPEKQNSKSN
For assay [10], the target named is T2, Sortilin-6His (Homo sapiens (Human), UniProt Q99523 78-755).
T2 construct: In MST it was labelled non-covalently with RED-tris-NTA; also called soluble ectodomain of sortilin-6his; fluorescent sortilin-6his
T2 sequence (Q99523 78-755 V650M limits assumed): as above
As to the kind of experiment: TR-FRET (HTRF) ternary complex streptavidin-d2 / biotin-peptide / sortilin-6His; AUC score: + <5000, ++ >5000. Background: TR-FRET usually uses a lanthanide donor and a delayed reading to cut background.

For assay [11], the target named is T2, Sortilin-6His. Briefly: MST, fluorescent sortilin-6his (100 nM), peptide titrated.
The target in assay [12] is T2, Sortilin-6His. Briefly: MST on labelled sortilin-6his ectodomain; KD score: ++ <100 nM, + 100-2000 nM.

Read-outs that look alike come from different tables or passages of the source. Residues, ends and D or L forms follow the SMILES beside them. *: point of attachment. Biotin = O=C1N[C@H]2[C@H](CS[C@H]2CCCCC(=O)*)N1 Where only a bound is given, the exact number is not on record here.

Regarding `CC(C)(C)CCC(NC(=O)c1ccc(Oc2cccc(OCCOCCOCCOCCOCCOCCNC(=O)CCCC[C@@H]3SC[C@@H]4NC(=O)N[C@@H]43)c2)nc1)C(=O)O` (stereo partly drawn) [B025], the “NA650 band in lysate” value in the assay on HEK293/sortilin cells [1] (24 h incubation, compound 300 nM) was “visible in cells incubated with B025 alone”.
By Kd is commonly meant the concentration at which binding is half-saturated. As to `CC(C)(C)CC[C@H](NC(=O)c1ccc(Oc2cccc3c(C(=O)NCCCNC(=O)CCOCCOCCOCCNc4ccc([N+](=O)[O-])cc4[N+](=O)[O-])cccc23)nc1)C(=O)O` [BF005, (2S)-2-[[6-[5-[3-[3-[2-[2-[2-(2,4-dinitroanilino)ethoxy]ethoxy]ethoxy]propanoylamino]propylcarbamoyl]-1-naphthyl]oxy]pyridine-3-carbonyllamino]-5,5-dimethyl-hexanoic acid], the “cell associated FI response to increasing degrader concentration” value in assay [2] was “No response”. Besides, the Kd in assay [3] fell in the range of 1 to 10 nM. The “AUC score, target internalization” value in assay [4] is on record as “++ (AUC > 10.000)”.
As to `C[C@@H]1CN(c2ncc(-c3ccc4c(n3)N(Cc3cccnc3C#N)C(C)(C)C4=O)cn2)CCN1C(=O)CNC(=O)CCCCCCCCCNC(=O)c1cccc(Oc2ccc(C(=O)N[C@@H](CCC(C)(C)C)C(=O)O)cn2)c1` [BF043, (2S)-2-[[6-[3-[[10-[[2-[(2R)-4-[5-[1-[(2-cyano-3-pyridyl)methyl]-2,2-dimethyl-3-oxo-pyrrolo[2,3-b]pyridin-6-yl]pyrimidin-2-yl]-2-methyl-piperazin-1-yl]-2-oxo-ethyl]amino]-10-oxo-decyl]carbamoyl]phenoxy]pyridine-3-carbonyl]amino]-5,5-dimethyl-hexanoic acid], the “Maximum clearance rates of TNFalpha from conditioned media” value in the assay on HEK293/sortilin cells [5] is listed as 63.3%. Further, the Kd in assay [3] (Table 4, small molecule bifunctional compounds, MST, read-out: KD score, binding to sortilin (Kd)) was less than 1 nM.
For `CC(C)C[C@H](NC(=O)[C@H](CC(C)C)NC(=O)[C@H](CCC(N)=O)NC(=O)[C@H](CCCNC(=N)N)NC(=O)CNC(=O)CNC(=O)[C@H](CO)NC(=O)CNC(=O)CNC(=O)CNC(=O)CNC(=O)[C@H](CO)NC(=O)CNC(=O)CNC(=O)CNC(=O)CNC(=O)[C@H](CO)NC(=O)CNC(=O)CNC(=O)CCCC[C@@H]1SC[C@@H]2NC(=O)N[C@@H]21)C(=O)O` [SEQ ID NO.: 147] (Biotin-GGSGGGGSGGGGSGGRQLL-OH), in the assay on HEK293/sortilin cells [1] (2 h incubation, bifunctional molecule 300 nM, anti-LAMP1 staining), the “subcellular localization of internalized NA650 (fluorescence microscopy)” value was “co-localizes with lysosomal marker”. Besides, the dissociation constant (Kd) in assay [3] (Table 1, biotin-linker-peptide bifunctional compounds, MST, read-out: KD score, binding to sortilin (Kd)) lay within 100 to 2000 nM. For the same molecule, the “reduction in NA650 signal in cell culture supernatant” value with HEK293/sortilin cells [6] (after 24 h) is listed as 16%; with HEK293/sortilin cells [6] (after 48 h) it was 46%; with HEK293/sortilin cells [6] (after 72 h) it was 61%. The “degrader concentration of highest uptake of target” value in the assay with HEK293/sortilin cells [6] (all timepoints (24, 48, 72 h)) came out at 312 nM. Further, the “cell associated FI signal, response to concentration series (in words)” value in assay [7] is reported as “bell-shaped response”. Also, in assay [8], the “AUC score, TR-FRET measurements of ternary complex formation” value was “++ (AUC > 5000)”.
Broadly, the KD is a measure of binding affinity in units of concentration. On to “H-LQLL-OH (as printed in Table 3 for SEQ ID NO.: 30) (peptide)”, for which the KD in [9] was in the range of 25 to 250 nM.

B1: Biotin-GGSGGGGSGGGGSGGRQLL-OH (peptide)
peptide: Biotin-GGSGGGGSGGGGSGGRQLL-OH
SMILES: CC(C)C[C@H](NC(=O)[C@H](CC(C)C)NC(=O)[C@H](CCC(N)=O)NC(=O)[C@H](CCCNC(=N)N)NC(=O)CNC(=O)CNC(=O)[C@H](CO)NC(=O)CNC(=O)CNC(=O)CNC(=O)CNC(=O)[C@H](CO)NC(=O)CNC(=O)CNC(=O)CNC(=O)CNC(=O)[C@H](CO)NC(=O)CNC(=O)CNC(=O)CCCC[C@@H]1SC[C@@H]2NC(=O)N[C@@H]21)C(=O)O
notes: also called degrader
Regarding B1, the “AUC of TR-FRET (HTRF ratio vs compound concentration) for ternary complex formation” value in the assay with Sortilin-6His [10] was greater than 5000 auc. Further, in the assay with Sortilin-6His [11], the equilibrium dissociation constant (Kd) stood at 703 nM. Also, the KD with Sortilin-6His [12] fell in the range of 100 to 2000 nM.
